Among the data in patent EP0100257A2, “Aminoalkyl naphthalene derivatives, their salts, process for their preparation and the therapeutical use of these derivatives and salts” (DELALANDE S.A., priority 1982, dated 1984) are LD50 and ED50 values, retold here.

The nature of series [1]: Acute toxicity (DL 50) in mice. To be noted: in vivo, ip, mouse, i.p., read-out: DL 50 souris. The text has this:
Pour illustrer l'invention, on a rassemblé dans le tableau III ci-après les résultats obtenus dans ces deux tests avec quelques composés selon l'invention. Ce tableau donne en outre la toxicité aiguë (DL 50) des composés testés.

For series [2], the system named is souris. As to the kind of experiment: Phenylbenzoquinone test (analgesic activity), protocol of Siegmund. The format is in vivo. To be noted: ip, mouse, i.p., read-out: Propriétés analgésiques DE 50.
In series [3] the test system is souris. As to the kind of experiment: Antagonism of reserpine-induced ptosis (antidepressant activity), protocol of Gouret and Thomas. It is filed as in vivo. To be noted: ip, 1 h; mouse, i.p.; ptosis observed one hour after reserpine 2 mg/kg i.v.; read-out: Propriétés antidépressives DE 50.
Description: L'activité antidépressive a quant à elle été mise en évidence chez la souris par le test de l'antagonisme vis-à-vis du ptosis observé une heure après une injection intraveineuse (2 mg/kg) de réserpine chez la souris selon le protocole décrit par C.

`CN(C)Cc1cc(-c2ccccc2)c2ccccc2c1` [Numéro de code 2, chlorhydrate de N,N-diméthylaminométhyl-2 phényl-4 naphtalène]: in series [1], the LD50 stood at 70 mg/kg. Moreover, the ED50 came to 4.5 mg/kg in series [2] and 5.3 mg/kg in series [3].

For the molecule `NCCc1cc(-c2ccccc2)c2ccccc2c1` [Numéro de code 9, chlorhydrate de l'(amino-2) éthyl-2 phényl-4 naphtalène], the LD50 in series [1] amounted to 58 mg/kg. Further, the ED50 is 2.2 mg/kg in series [2] and 3 mg/kg in series [3].
